Measured values published in patent publication US11987586B1 (TAKEDA PHARMACEUTICAL COMPANY LIMITED, priority 2022, dated 2024).

What follows are molecules tested against T1, human OX2 receptor (Homo sapiens, UniProt O43614) (assay: Measurement of orexin type 2 receptor agonist activity (calcium fluorescence, Fluo-4, FDSS)). Conditions: 3 uM test compound; CHO cells expressing human OX2 receptor; DMSO = 0%, 10 nM orexin A (human) = 100%.
T1 construct: expressed in transfected cells
T1 sequence (O43614 1-444): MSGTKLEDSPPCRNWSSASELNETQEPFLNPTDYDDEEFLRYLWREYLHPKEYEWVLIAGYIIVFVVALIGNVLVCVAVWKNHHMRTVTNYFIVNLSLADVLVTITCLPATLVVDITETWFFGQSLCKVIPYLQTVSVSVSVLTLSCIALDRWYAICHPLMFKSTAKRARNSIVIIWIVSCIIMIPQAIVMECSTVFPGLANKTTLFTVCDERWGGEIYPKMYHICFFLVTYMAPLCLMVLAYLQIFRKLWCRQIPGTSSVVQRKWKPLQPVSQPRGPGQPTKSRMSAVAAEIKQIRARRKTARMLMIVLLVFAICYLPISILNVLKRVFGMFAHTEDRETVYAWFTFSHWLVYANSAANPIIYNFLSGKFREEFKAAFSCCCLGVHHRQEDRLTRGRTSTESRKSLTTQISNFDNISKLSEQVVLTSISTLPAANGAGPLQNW
Type: cell-based
Method in brief: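 CHO-K1 cells stably expressing human OX2 receptor (residues 1-444) were loaded with Fluo-4 AM plus probenecid. Calcium fluorescence after compound addition was recorded for 1 min 40 s. Activity (%) was scaled between DMSO (0%) and 10 nM orexin A final (100%).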

OX2R agonist activity (3 uM, %) [%]	Compound
105	CCS(=O)(=O)N[C@@H]1CN2C(=O)N(c3noc4cc(C(F)F)cc(-c5c(F)cc(F)cc5F)c34)C[C@@H]2C1(F)F [Example 298, N-{(6R,7aR)-2-[6-(difluoromethyl)-4-(2,4,6-trifluorophenyl)-1,2-benzoxazol-3-yl]-7,7-difluoro-3-oxohexahydro-1H-pyrrolo[1,2-c]imidazol-6-yl}ethanesulfonamide]
104	CCOc1cc(-c2c(F)cccc2F)c2c(N3CC[C@H]4N(C[C@@H](NS(=O)(=O)CC)C4(F)F)C3=O)noc2c1 [Example 299, N-{(4aR,6R)-2-[4-(2,6-difluorophenyl)-6-ethoxy-1,2-benzoxazol-3-yl]-5,5-difluoro-1-oxooctahydropyrrolo[1,2-c]pyrimidin-6-yl}ethanesulfonamide]
105	CCOc1cc(-c2c(F)cccc2F)c2c(N3CC[C@H]4N(C[C@@H](NS(=O)(=O)C5CC5)C4(F)F)C3=O)noc2c1 [Example 300, N-{(4aR,6R)-2-[4-(2,6-difluorophenyl)-6-ethoxy-1,2-benzoxazol-3-yl]-5,5-difluoro-1-oxooctahydropyrrolo[1,2-c]pyrimidin-6-yl}cyclopropanesulfonamide]
98	CNS(=O)(=O)N[C@@H]1Cn2c(cn(-c3noc4ccc(F)c(-c5c(F)cc(F)cc5F)c34)c2=O)C1(F)F [Example 301, N-{(6R)-7,7-difluoro-2-[5-fluoro-4-(2,4,6-trifluorophenyl)-1,2-benzoxazol-3-yl]-3-oxo-2,5,6,7-tetrahydro-3H-pyrrolo[1,2-c]imidazol-6-yl}-N′-methylsulfuric diamide]
103	CNS(=O)(=O)N[C@@H]1Cn2c(cn(-c3noc4cc(C)nc(-c5c(F)cccc5F)c34)c2=O)C1(F)F [Example 302, N-{(6R)-2-[4-(2,6-difluorophenyl)-6-methyl[1,2]oxazolo[4,5-c]pyridin-3-yl]-7,7-difluoro-3-oxo-2,5,6,7-tetrahydro-3H-pyrrolo[1,2-c]imidazol-6-yl}-N′-methylsulfuric diamide]
103	CCS(=O)(=O)N[C@@H]1CN2C(=O)N(c3noc4cc(OC(F)F)cc(-c5c(F)cc(F)cc5F)c34)CC[C@@H]2C1(F)F [Example 303, N-{(4aR,6R)-2-[6-(difluoromethoxy)-4-(2,4,6-trifluorophenyl)-1,2-benzoxazol-3-yl]-5,5-difluoro-1-oxooctahydropyrrolo[1,2-c]pyrimidin-6-yl}ethanesulfonamide]
117	CCS(=O)(=O)N[C@@H]1CN2C(=O)N(c3noc4cc(F)c(F)c(-c5c(F)cc(F)cc5F)c34)CC[C@@H]2C1(F)F [Example 304, N-{(4aR,6R)-2-[5,6-difluoro-4-(2,4,6-trifluorophenyl)-1,2-benzoxazol-3-yl]-5,5-difluoro-1-oxooctahydropyrrolo[1,2-c]pyrimidin-6-yl}ethanesulfonamide]
113	O=C1N(c2noc3cc(F)c(F)c(-c4c(F)cc(F)cc4F)c23)CC[C@H]2N1C[C@@H](NS(=O)(=O)C1CC1)C2(F)F [Example 305, N-{(4aR,6R)-2-[5,6-difluoro-4-(2,4,6-trifluorophenyl)-1,2-benzoxazol-3-yl]-5,5-difluoro-1-oxooctahydropyrrolo[1,2-c]pyrimidin-6-yl}cyclopropanesulfonamide]
101	O=c1n(-c2noc3cc(C(F)F)cc(-c4c(F)cccc4F)c23)cc2n1C[C@@H](NS(=O)(=O)CF)C2(F)F [Example 306, N-{(6R)-2-[6-(difluoromethyl)-4-(2,6-difluorophenyl)-1,2-benzoxazol-3-yl]-7,7-difluoro-3-oxo-2,5,6,7-tetrahydro-3H-pyrrolo[1,2-c]imidazol-6-yl}-1-fluoromethanesulfonamide]
101	CCOc1cc(-c2c(F)cc(F)cc2F)c2c(N3CC[C@H]4N(C[C@@H](NS(=O)(=O)CC)C4(F)F)C3=O)noc2c1 [Example 307, N-{(4aR,6R)-2-[6-ethoxy-4-(2,4,6-trifluorophenyl)-1,2-benzoxazol-3-yl]-5,5-difluoro-1-oxooctahydropyrrolo[1,2-c]pyrimidin-6-yl}ethanesulfonamide]
100	COc1cc(-c2c(F)cc(F)cc2F)c2c(N3CC[C@H]4N(C[C@@H](NS(=O)(=O)C5CC5)C4(F)F)C3=O)noc2n1 [Example 308, N-{(4aR,6R)-5,5-difluoro-2-[6-methoxy-4-(2,4,6-trifluorophenyl)[1,2]oxazolo[5,4-b]pyridin-3-yl]-1-oxooctahydropyrrolo[1,2-c]pyrimidin-6-yl}cyclopropanesulfonamide]
107	CCS(=O)(=O)N[C@@H]1Cn2c(cn(-c3noc4nc(OC)cc(-c5c(F)cc(F)cc5F)c34)c2=O)C1(F)F [Example 309, N-{(6R)-7,7-difluoro-2-[6-methoxy-4-(2,4,6-trifluorophenyl)[1,2]oxazolo[5,4-b]pyridin-3-yl]-3-oxo-2,5,6,7-tetrahydro-3H-pyrrolo[1,2-c]imidazol-6-yl}ethanesulfonamide]
100	CNS(=O)(=O)N[C@@H]1CN2C(=O)N(c3noc4cc(F)cc(-c5c(F)cccc5F)c34)C[C@@H]2C1(F)F [Example 310, N-{(6R,7aR)-2-[4-(2,6-difluorophenyl)-6-fluoro-1,2-benzoxazol-3-yl]-7,7-difluoro-3-oxohexahydro-1H-pyrrolo[1,2-c]imidazol-6-yl}-N′-methylsulfuric diamide]
99	CCS(=O)(=O)N[C@@H]1CN2C(=O)N(c3noc4cc(F)c(F)c(-c5c(F)cccc5F)c34)CC[C@@H]2C1(F)F [Example 311, N-{(4aR,6R)-2-[4-(2,6-difluorophenyl)-5,6-difluoro-1,2-benzoxazol-3-yl]-5,5-difluoro-1-oxooctahydropyrrolo[1,2-c]pyrimidin-6-yl}ethanesulfonamide]
100	O=C1N(c2noc3cc(F)c(F)c(-c4c(F)cccc4F)c23)CC[C@H]2N1C[C@@H](NS(=O)(=O)C1CC1)C2(F)F [Example 312, N-{(4aR,6R)-2-[4-(2,6-difluorophenyl)-5,6-difluoro-1,2-benzoxazol-3-yl]-5,5-difluoro-1-oxooctahydropyrrolo[1,2-c]pyrimidin-6-yl}cyclopropanesulfonamide]
99	O=C1N(c2noc3cc(F)c(F)c(-c4c(F)cccc4F)c23)CC[C@H]2N1C[C@@H](NS(=O)(=O)CF)C2(F)F [Example 313, N-{(4aR,6R)-2-[4-(2,6-difluorophenyl)-5,6-difluoro-1,2-benzoxazol-3-yl]-5,5-difluoro-1-oxooctahydropyrrolo[1,2-c]pyrimidin-6-yl}-1-fluoromethanesulfonamide]
113	CS(=O)(=O)N[C@@H]1CN2C(=O)N(c3noc4cc(F)cc(-c5c(F)cccc5F)c34)CC[C@@H]2C1(F)F [Example 314, N-{(4aR,6R)-2-[4-(2,6-difluorophenyl)-6-fluoro-1,2-benzoxazol-3-yl]-5,5-difluoro-1-oxooctahydropyrrolo[1,2-c]pyrimidin-6-yl}methanesulfonamide]
105	CCS(=O)(=O)N[C@@H]1CN2C(=O)N(c3noc4nc(OC)cc(-c5c(F)cc(F)cc5F)c34)CC[C@@H]2C1(F)F [Example 315, N-{(4aR,6R)-5,5-difluoro-2-[6-methoxy-4-(2,4,6-trifluorophenyl)[1,2]oxazolo[5,4-b]pyridin-3-yl]-1-oxooctahydropyrrolo[1,2-c]pyrimidin-6-yl}ethanesulfonamide]
105	O=C1N(c2noc3cc(OC(F)F)cc(-c4c(F)cc(F)cc4F)c23)CC[C@H]2N1C[C@@H](NS(=O)(=O)C1CC1)C2(F)F [Example 316, N-{(4aR,6R)-2-[6-(difluoromethoxy)-4-(2,4,6-trifluorophenyl)-1,2-benzoxazol-3-yl]-5,5-difluoro-1-oxooctahydropyrrolo[1,2-c]pyrimidin-6-yl}cyclopropanesulfonamide]
110	CS(=O)(=O)N[C@H]1C[C@H]2CCN(c3noc4cccc(-c5c(F)cccc5F)c34)C(=O)N2C1 [Example 317, N-{(4aR,6S)-2-[4-(2,6-difluorophenyl)-1,2-benzoxazol-3-yl]-1-oxooctahydropyrrolo[1,2-c]pyrimidin-6-yl}methanesulfonamide]
105	O=C1N(c2noc3cc(F)cc(-c4ncc(F)cc4F)c23)CC[C@H]2N1C[C@@H](NS(=O)(=O)C1CC1)C2(F)F [Example 318, N-{(4aR,6R)-2-[4-(3,5-difluoropyridin-2-yl)-6-fluoro-1,2-benzoxazol-3-yl]-5,5-difluoro-1-oxooctahydropyrrolo[1,2-c]pyrimidin-6-yl}cyclopropanesulfonamide]
107	O=C1N(c2noc3cccc(-c4ncc(F)cc4F)c23)CC[C@H]2N1C[C@@H](NS(=O)(=O)C1CC1)C2(F)F [Example 319, N-{(4aR,6R)-2-[4-(3,5-difluoropyridin-2-yl)-1,2-benzoxazol-3-yl]-5,5-difluoro-1-oxooctahydropyrrolo[1,2-c]pyrimidin-6-yl}cyclopropanesulfonamide]
